PubChem BioAssay (NCI)
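96-well plates; 48 h exposure; 5 concentrations. Endpoints by linear interpolation between flanking doses. Not reached: highest tested concentration assigned. TGI: concentration producing complete growth inhibition.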

What was measured:
Assay in all cases: NCI-60 cell line screen, 48 h
[1] = tested on: 786-0 renal
[2] = tested on: A498 renal
[3] = tested on: A549 NSCLC
[4] = tested on: ACHN renal
[5] = tested on: CAKI-1 renal
[6] = tested on: CCRF-CEM leukemia
[7] = tested on: COLO 205 colon
[8] = tested on: DLD-1 colon
[9] = tested on: DMS 114 small cell lung
[10] = tested on: DMS 273 small cell lung
[11] = tested on: EKVX NSCLC
[12] = tested on: HCC-2998 colon
[13] = tested on: HCT-116 colon
[14] = tested on: HCT-15 colon
[15] = tested on: HOP-18 NSCLC
[16] = tested on: HOP-62 NSCLC
[17] = tested on: HOP-92 NSCLC
[18] = tested on: HT29 colon
[19] = tested on: IGROV1 ovarian
[20] = tested on: K-562 leukemia
[21] = tested on: KM12 colon
[22] = tested on: KM20L2 colon
[23] = tested on: LOX IMVI melanoma
[24] = tested on: LXFL 529 NSCLC
[25] = tested on: M14 melanoma
[26] = tested on: M19-MEL melanoma
[27] = tested on: MALME-3M melanoma
[28] = tested on: MOLT-4 leukemia
[29] = tested on: NCI-H23 lung
[30] = tested on: NCI-H522 lung
[31] = tested on: OVCAR-3 ovarian
[32] = tested on: OVCAR-4 ovarian
[33] = tested on: OVCAR-5 ovarian
[34] = tested on: OVCAR-8 ovarian
[35] = tested on: RPMI-8226 leukemia
[36] = tested on: RXF 393 renal
[37] = tested on: RXF-631 renal
[38] = tested on: SF-268 CNS
[39] = tested on: SF-295 CNS
[40] = tested on: SF-539 CNS
[41] = tested on: SK-MEL-2 melanoma
[42] = tested on: SK-MEL-28 melanoma
[43] = tested on: SK-MEL-5 melanoma
[44] = tested on: SK-OV-3 ovarian
[45] = tested on: SN12C renal
[46] = tested on: SNB-19 CNS
[47] = tested on: SNB-75 CNS
[48] = tested on: SNB-78 CNS
[49] = tested on: SW-620 colon
[50] = tested on: TK-10 renal
[51] = tested on: U251 CNS
[52] = tested on: UACC-257 melanoma
[53] = tested on: UACC-62 melanoma
[54] = tested on: UO-31 renal
[55] = tested on: XF 498 CNS
[56] = tested on: HL-60(TB) leukemia
[57] = tested on: NCI-H226 lung
[58] = tested on: NCI-H460 lung

Structure (SMILES): Nc1ccc(C(=O)N/C(=C\C=C\c2ccco2)c2nc3c4c(ccc3[nH]2)C(=O)c2ccccc2C4=O)cc1
- TGI [1]: > 100 µM
- TGI [2]: > 100 µM
- TGI [3]: 97 µM
- TGI [4]: 82 µM
- TGI [5]: > 100 µM
- TGI [6]: > 100 µM
- TGI [7]: > 100 µM
- TGI [8]: 58.3 µM
- TGI [9]: > 100 µM
- TGI [10]: > 100 µM
- TGI [11]: > 100 µM
- TGI [12]: > 100 µM
- TGI [13]: > 100 µM
- TGI [14]: > 100 µM
- TGI [15]: > 100 µM
- TGI [16]: > 100 µM
- TGI [17]: > 100 µM
- TGI [18]: > 100 µM
- TGI [19]: > 100 µM
- TGI [20]: > 100 µM
- TGI [21]: > 100 µM
- TGI [22]: > 100 µM
- TGI [23]: > 100 µM
- TGI [24]: > 100 µM
- TGI [25]: > 100 µM
- TGI [26]: > 100 µM
- TGI [27]: > 100 µM
- TGI [28]: 55.6 µM
- TGI [29]: > 100 µM
- TGI [30]: > 100 µM
- TGI [31]: > 100 µM
- TGI [32]: > 100 µM
- TGI [33]: > 100 µM
- TGI [34]: > 100 µM
- TGI [35]: > 100 µM
- TGI [36]: 95 µM
- TGI [37]: > 100 µM
- TGI [38]: > 100 µM
- TGI [39]: > 100 µM
- TGI [40]: > 100 µM
- TGI [41]: 78.6 µM
- TGI [42]: > 100 µM
- TGI [43]: > 100 µM
- TGI [44]: 81.3 µM
- TGI [45]: > 100 µM
- TGI [46]: > 100 µM
- TGI [47]: 62.1 µM
- TGI [48]: > 100 µM
- TGI [49]: > 100 µM
- TGI [50]: 82 µM
- TGI [51]: > 100 µM
- TGI [52]: > 100 µM
- TGI [53]: > 100 µM
- TGI [54]: 17.9 µM
- TGI [55]: > 100 µM

Structure (SMILES): O=C(O)C1CCC(=O)N1C(=O)C(Cl)c1ccccc1 (configuration not stated)
- TGI [1]: > 100 µM
- TGI [2]: > 100 µM
- TGI [3]: > 100 µM
- TGI [4]: > 100 µM
- TGI [5]: > 100 µM
- TGI [6]: > 100 µM
- TGI [7]: > 100 µM
- TGI [8]: > 100 µM
- TGI [9]: > 100 µM
- TGI [10]: > 100 µM
- TGI [11]: > 100 µM
- TGI [12]: > 100 µM
- TGI [13]: > 100 µM
- TGI [14]: > 100 µM
- TGI [56]: > 100 µM
- TGI [15]: > 100 µM
- TGI [16]: > 100 µM
- TGI [17]: > 100 µM
- TGI [18]: > 100 µM
- TGI [19]: > 100 µM
- TGI [20]: > 100 µM
- TGI [21]: > 100 µM
- TGI [22]: > 100 µM
- TGI [23]: > 100 µM
- TGI [24]: > 100 µM
- TGI [25]: > 100 µM
- TGI [26]: > 100 µM
- TGI [27]: > 100 µM
- TGI [28]: > 100 µM
- TGI [57]: > 100 µM
- TGI [29]: > 100 µM
- TGI [58]: > 100 µM
- TGI [30]: > 100 µM
- TGI [31]: > 100 µM
- TGI [32]: > 100 µM
- TGI [33]: > 100 µM
- TGI [34]: > 100 µM
- TGI [35]: > 100 µM
- TGI [37]: > 100 µM
- TGI [38]: > 100 µM
- TGI [39]: > 100 µM
- TGI [41]: > 100 µM
- TGI [42]: > 100 µM
- TGI [43]: > 100 µM
- TGI [44]: > 100 µM
- TGI [45]: > 100 µM
- TGI [46]: > 100 µM
- TGI [47]: > 100 µM
- TGI [48]: > 100 µM
- TGI [49]: > 100 µM
- TGI [50]: > 100 µM
- TGI [51]: > 100 µM
- TGI [52]: > 100 µM
- TGI [53]: > 100 µM
- TGI [54]: > 100 µM
- TGI [55]: > 100 µM

Structure (SMILES): Cc1nc2c(o1)C(=Nc1ccccc1)c1ccccc1C2=Nc1ccccc1
- TGI [1]: > 100 µM
- TGI [2]: > 100 µM
- TGI [3]: > 100 µM
- TGI [4]: > 100 µM
- TGI [5]: > 100 µM
- TGI [6]: > 100 µM
- TGI [7]: > 100 µM
- TGI [8]: > 100 µM
- TGI [9]: > 100 µM
- TGI [10]: > 100 µM
- TGI [11]: > 100 µM
- TGI [12]: > 100 µM
- TGI [13]: > 100 µM
- TGI [14]: 32 µM
- TGI [56]: > 100 µM
- TGI [15]: > 100 µM
- TGI [16]: > 100 µM
- TGI [17]: > 100 µM
- TGI [18]: > 100 µM
- TGI [19]: > 100 µM
- TGI [20]: > 100 µM
- TGI [21]: > 100 µM
- TGI [22]: > 100 µM
- TGI [23]: > 100 µM
- TGI [24]: > 100 µM
- TGI [25]: > 100 µM
- TGI [26]: > 100 µM
- TGI [27]: > 100 µM
- TGI [28]: > 100 µM
- TGI [29]: > 100 µM
- TGI [58]: > 100 µM
- TGI [30]: > 100 µM
- TGI [31]: > 100 µM
- TGI [32]: > 100 µM
- TGI [33]: > 100 µM
- TGI [34]: > 100 µM
- TGI [35]: > 100 µM
- TGI [36]: > 100 µM
- TGI [37]: > 100 µM
- TGI [38]: > 100 µM
- TGI [39]: > 100 µM
- TGI [40]: > 100 µM
- TGI [41]: > 100 µM
- TGI [43]: > 100 µM
- TGI [44]: > 100 µM
- TGI [45]: > 100 µM
- TGI [46]: > 100 µM
- TGI [47]: > 100 µM
- TGI [48]: > 100 µM
- TGI [49]: 41.3 µM
- TGI [50]: > 100 µM
- TGI [51]: > 100 µM
- TGI [52]: > 100 µM
- TGI [53]: > 100 µM
- TGI [54]: > 100 µM
- TGI [55]: > 100 µM
